Laboratory results taken from paper PMC8739347 (Tropical Medicine and Health, 2022).
pIC50: −log10 of the molar value.

Assays:
[1] = test system: SARS-CoV-2 original Wuhan strain (hCoV-19/Japan/TY/WK-521,2019); assay: Antiviral activity assay in Vero E6 cells, qRT-PCR of supernatant; type: cell-based; conditions: Severe acute respiratory syndrome coronavirus 2, Vero C1008, Vero E6, 72 h pretreatment, MOI 0.02, 48 h pi, compound concentration (for 5-ALA/SFC the 5-ALA concentration, ratio 4:1)
[2] = Cell viability assay (MTT); type: cell-based; conditions: African green monkey, Vero E6 cells; Vero E6, 3 days, in parallel with Delta antiviral assay; 5-ALA concentration
Procedure: (§1) Vero E6 cells in 96-well plates were treated with samples for 3 days, and a cell viability assay was conducted in parallel with an antiviral assay. To determine the concentration that triggered a 50% reduction in cell survival (CC50), the results of the cell viability assay were evaluated by 3-(4,5-dimethylthiazol-2-yl)-2,5-diphenyl tetrazolium bromide according to the manufacturer’s instructions (Promega, Madison, WI, USA). Optical density was measured at 570 nm using a microplate reader (Synergy H1 M; BioTek Instruments, Winooski, VT, USA). Cell viability was determined using the following equation: cell viability (%) = (sample value)/(cell control) × 100. In addition, viral inhibition by 50% (IC50) was calculated as viral inhibition (%) = quantity of virus copies in (virus control − sample)/virus control × 100.

Vero E6 cells = assay: Cell viability assay (MTT); type: cell-based; conditions: Vero E6, 3 days, 5-ALA concentration
Procedure: as §1

[3] = parameters: method as in PMID 11961050; conditions: oral route; cited from earlier work
SARS-CoV-2 = test system: SARS-CoV-2; parameters: method as in PMID 31781665; conditions: SFC only; cited from earlier work

`NCC(=O)CCC(=O)O` [5-ALA, 5-aminolevulinic acid] showed a pIC50 [1] of 3.68, a CC50 at 3 days [2] of over 2000 µM and a CC50 (Vero E6 cells; in parallel with Alpha antiviral assay) of over 2000 µM. The CC50 (Vero E6 cells; in parallel with Beta antiviral assay) was over 2000 µM, the CC50 (Vero E6 cells; in parallel with Gamma antiviral assay) was over 2000 µM and the CC50 (Vero E6 cells; in parallel with Wuhan antiviral assay) was over 2000 µM. The bioavailability [3] was “high bioavailability”.
`CCC(CC)COC(=O)[C@H](C)N[P@](=O)(OC[C@H]1O[C@@](C#N)(c2ccc3c(N)ncnn23)[C@H](O)[C@@H]1O)Oc1ccccc1` [remdesivir, Remdesivir] showed a pIC50 [1] of 6.00 to 7.00.
In the case of Sodium ferrous citrate [SFC], the antiviral activity (SARS-CoV-2) is listed as “did not show antiviral activity”.
